According to EPA's ToxRefDB 2:

What was measured:
rat [1] = settings: Combined chronic toxicity/carcinogenicity, sprague dawley, Oral, Feed, dose end: 113 week, group: systemic
mouse [2] = settings: Multigenerational reproductive toxicity study; cd1; Oral; Feed; dose end: 1 generation; group: offspring; systemic / in life observation / body weight / offspring (pup) weight
rat [3] = settings: Prenatal developmental toxicity study; other; Oral; Water; dose end: 19 GD; group: maternal; systemic / in life observation / water consumption / water consumption
rat [4] = settings: Prenatal developmental toxicity study; other; Oral; Gavage/Intubation; dose end: 19 GD; group: maternal; systemic / in life observation / food consumption / food consumption
mouse [5] = settings: Combined chronic toxicity/carcinogenicity, cd1, Oral, Feed, dose end: 104 week, group: systemic
mouse [6] = settings: Developmental neurotoxicity study; cd1; Injection; Subcutaneous; dose end: 35 PND; group: cannot be grouped; developmental / developmental landmark / eye opening / eye opening + systemic / in life observation / clinical signs / [other] + systemic / …
mouse [7] = settings: Prenatal developmental toxicity study, cd1, Oral, Gavage/Intubation, dose end: 16 GD
rat [8] = settings: Developmental neurotoxicity study; other; Oral; Water; dose end: 20 PND; group: cannot be grouped; systemic / in life observation / body weight / body weight gain + systemic / in life observation / food consumption / food consumption + …
mouse [9] = settings: Chronic toxicity, b6c3f1, Oral, Feed, dose end: 2 year, group: systemic
rat [10] = settings: Combined chronic toxicity/carcinogenicity, fischer, Oral, Feed, dose end: 2 year, group: systemic
mouse [11] = settings: Subchronic oral toxicity in rodents, cd1, Feed, dose end: 14 week, group: systemic
mouse [12] = settings: Subchronic oral toxicity in rodents, b6c3f1, Feed, dose end: 14 week, group: systemic, systemic / organ weight / liver / absolute + systemic / organ weight / liver / relative to body weight + systemic / pathology microscopic / …
mouse [13] = settings: Chronic toxicity; cd1; Oral; Feed; dose end: 57 week; group: systemic; systemic / pathology microscopic / heart / amyloid deposition + systemic / pathology microscopic / liver / eosinophilic focus + systemic / …
[14] = systemic / in life observation / body weight / body weight + systemic / in life observation / clinical signs / feces, discoloration + …
[15] = systemic / in life observation / clinical signs / fur (altered appearance)
[16] = systemic / in life observation / clinical signs / fur (altered appearance) + systemic / in life observation / clinical signs / skin …
[17] = group: developmental, developmental / developmental malformation / bone / supernumerary + developmental / developmental malformation / general / hemorrhage + …
[18] = group: maternal, reproductive / reproductive performance / resorptions / resorptions + systemic / in life observation / clinical signs / abnormal movements…
[19] = systemic / pathology microscopic / liver / hypertrophy + systemic / pathology microscopic / thyroid gland / hyperplasia
[20] = systemic / pathology microscopic / liver / hypertrophy + systemic / pathology microscopic / thyroid gland / hyperplasia + systemic / in life…
[21] = systemic / in life observation / body weight / body weight + systemic / pathology microscopic / kidney / adenoma + systemic / in life …
[22] = systemic / pathology microscopic / kidney / nephropathy
[23] = systemic / in life observation / clinical signs / grip strength + systemic / organ weight / liver / absolute + systemic / organ weight / …
[24] = systemic / organ weight / liver / absolute + systemic / pathology microscopic / liver / hypertrophy

SMILES: O=C([O-])c1[nH]n(-c2ccc(S(=O)(=O)[O-])cc2)c(=O)c1N=Nc1ccc(S(=O)(=O)[O-])cc1.[Na+].[Na+].[Na+] [FD&C Yellow 5]
- LOAEL (rat [1]; [14]): > 2640 mg/kg/day
- NOAEL (rat [1]; [14]): ≥ 2640 mg/kg/day
- LEL (rat [1]; [15]): 48 mg/kg/day
- NEL (rat [1]; [15]): < 48 mg/kg/day
- LEL (mouse [2]): 771 mg/kg/day
- LOAEL (mouse [2]): > 771 mg/kg/day
- NEL (mouse [2]): 260 mg/kg/day
- NOAEL (mouse [2]): ≥ 771 mg/kg/day
- LEL (rat [3]): 1060 mg/kg/day
- LOAEL (rat [3]): > 1060 mg/kg/day
- NEL (rat [3]): 568 mg/kg/day
- NOAEL (rat [3]): ≥ 1060 mg/kg/day
- LEL (rat [4]): 1000 mg/kg/day
- LOAEL (rat [4]): > 1000 mg/kg/day
- NEL (rat [4]): 600 mg/kg/day
- NOAEL (rat [4]): ≥ 1000 mg/kg/day
- LOAEL (mouse [5]; [14]): > 8100 mg/kg/day
- NOAEL (mouse [5]; [14]): ≥ 8100 mg/kg/day
- LEL (mouse [5]; [16]): 714 mg/kg/day
- NEL (mouse [5]; [16]): < 714 mg/kg/day

SMILES: CN1CCC[C@H]1c1cccnc1 [Nicotine]
- LEL (mouse [6]): 0.5 mg/kg/day
- LOAEL (mouse [6]): > 0.5 mg/kg/day
- NEL (mouse [6]): < 0.5 mg/kg/day
- NOAEL (mouse [6]): ≥ 0.5 mg/kg/day
- LEL (mouse [7]; group: developmental, developmental / developmental malformation / bone / supernumerary): 12 mg/kg/day
- LOAEL (mouse [7]; [17]): > 20 mg/kg/day
- NEL (mouse [7]; [17]): 4 mg/kg/day
- NOAEL (mouse [7]; [17]): ≥ 20 mg/kg/day
- LEL (mouse [7]; [18]): 12 mg/kg/day
- LOAEL (mouse [7]; [18]): > 20 mg/kg/day
- NEL (mouse [7]; [18]): 4 mg/kg/day
- NOAEL (mouse [7]; [18]): ≥ 20 mg/kg/day
- LEL (rat [8]): 2.9 mg/kg/day
- LOAEL (rat [8]): > 4.4 mg/kg/day
- NEL (rat [8]): < 2.9 mg/kg/day
- NOAEL (rat [8]): ≥ 4.4 mg/kg/day

SMILES: O=C1Nc2ccc(Cl)cc2C(c2ccccc2)=NC1O (stereo unspecified) [Oxazepam]
- LOAEL (mouse [9]; [19]): 12 mg/kg/day
- NOAEL (mouse [9]; [19]): < 12 mg/kg/day
- LEL (mouse [9]; [20]): 12 mg/kg/day
- NEL (mouse [9]; [20]): < 12 mg/kg/day
- LOAEL (rat [10]; [21]): > 630 mg/kg/day
- NOAEL (rat [10]; [21]): ≥ 630 mg/kg/day
- LEL (rat [10]; [22]): 25 mg/kg/day
- NEL (rat [10]; [22]): < 25 mg/kg/day
- LOAEL (mouse [11]; [23]): > 1400 mg/kg/day
- NOAEL (mouse [11]; [23]): ≥ 1400 mg/kg/day
- LEL (mouse [11]; [24]): 80 mg/kg/day
- NEL (mouse [11]; [24]): < 80 mg/kg/day
- LEL (mouse [12]): 100 mg/kg/day
- LOAEL (mouse [12]): > 1810 mg/kg/day
- NEL (mouse [12]): < 100 mg/kg/day
- NOAEL (mouse [12]): ≥ 1810 mg/kg/day
- LEL (mouse [13]): 270 mg/kg/day
- LOAEL (mouse [13]): 270 mg/kg/day
- NEL (mouse [13]): < 270 mg/kg/day
- NOAEL (mouse [13]): < 270 mg/kg/day
